Measured values from ChEMBL document CHEMBL3046172, “Synthesis and Insecticidal Activity of New 2- and 6-Substituted 4-Acetoxyquinolines” (1997).

Legend:
Type in all cases: functional
Bombyx mori [1] = experiment: Insecticidal activity against Bombyx mori Syogetsu x Syunrei third-instar larvae assessed as insect mortality upon topical application at 1 ug measured 48 hr post compound treatment
Bombyx mori [2] = experiment: Insecticidal activity against Bombyx mori Syogetsu x Syunrei third-instar larvae assessed as insect mortality upon topical application at 0.3 ug measured 48 hr post compound treatment
Bombyx mori [3] = experiment: Insecticidal activity against Bombyx mori Syogetsu x Syunrei third-instar larvae assessed as insect mortality upon topical application at 3 ug measured 48 hr post compound treatment
Bombyx mori [4] = experiment: Insecticidal activity against Bombyx mori Syogetsu x Syunrei third-instar larvae assessed as insect mortality upon topical application at 10 ug measured 48 hr post compound treatment
Spodoptera litura [5] = experiment: Insecticidal activity against Spodoptera litura third-instar larvae reared on artificial diets of Insecta LF assessed as insect mortality at 500 ppm measured 2 days post compound treatment; details: 48 h
Spodoptera litura [6] = experiment: Insecticidal activity against Spodoptera litura third-instar larvae reared on artificial diets of Insecta LF assessed as insect mortality at 250 ppm measured 2 days post compound treatment; details: 48 h
Plutella xylostella [7] = experiment: Insecticidal activity against Plutella xylostella (diamondback moth) third-instar larvae reared on cabbage plants leaves pre-treated with 250 ppm compound assessed as insect mortality measured 2 days post compound treatment
Plutella xylostella [8] = experiment: Insecticidal activity against Plutella xylostella (diamondback moth) third-instar larvae reared on cabbage plants leaves pre-treated with 500 ppm compound assessed as insect mortality measured 2 days post compound treatment
Plutella xylostella [9] = experiment: Insecticidal activity against Plutella xylostella (diamondback moth) third-instar larvae reared on cabbage plants leaves pre-treated with 1000 ppm compound assessed as insect mortality measured 2 days post compound treatment
Spodoptera litura [10] = experiment: Insecticidal activity against Spodoptera litura third-instar larvae reared on artificial diets of Insecta LF assessed as insect mortality at 125 ppm measured 2 days post compound treatment; details: 48 h
Bombyx mori [11] = experiment: Insecticidal activity against Bombyx mori Gunpo x Shugyoku third-instar larvae assessed as insect mortality upon topical application at 10 ug measured 48 hr post compound treatment

Structure (SMILES)	mortality (Bombyx mori [1])	mortality (Bombyx mori [2])	mortality (Bombyx mori [3])	mortality (Bombyx mori [4])	other results
CCCCCCC/C=C/c1nc2ccccc2c(OC(C)=O)c1C	76%	70%	100%		
CCCCCCCCCc1nc2ccccc2c(OC(C)=O)c1C	15%		100%	100%	
CCCCCCCc1nc2ccccc2c(OC(C)=O)c1C	10%	0%	100%	100%	
CCCCCCc1nc2ccccc2c(OC(C)=O)c1C	10%		100%	100%	
CCCCCc1nc2ccccc2c(OC(C)=O)c1C	0%		40%	100%	
CCCCc1nc2ccccc2c(OC(C)=O)c1C			35%	95%	
CCCc1nc2ccccc2c(OC(C)=O)c1C			0%	0%	
CCc1nc2ccccc2c(OC(C)=O)c1C	95%	0%	100%		
CC(=O)Oc1c(C)c(C)nc2ccccc12	0%		71%	100%	
CCCCCCCCCc1nc2ccc(F)cc2c(OC(C)=O)c1C				10%	
CCCCCCc1nc2ccc(F)cc2c(OC(C)=O)c1C	0%		60%	75%	
CCc1nc2ccc(F)cc2c(OC(C)=O)c1C	100%	70%			mortality at 500 ppm (Spodoptera litura [5]): 100%; mortality at 250 ppm (Spodoptera litura [6]): 90%; mortality at 250 ppm (Plutella xylostella [7]): 42.5%; mortality at 500 ppm (Plutella xylostella [8]): 70%; mortality at 1000 ppm (Plutella xylostella [9]): 97.5%; mortality at 125 ppm (Spodoptera litura [10]): 55%
CC(=O)Oc1c(C)c(C)nc2ccc(F)cc12	95%	0%	100%		
C=Cc1nc2ccccc2c(OC(C)=O)c1C					mortality (Bombyx mori [11]): 0%
C/C=C/c1nc2ccccc2c(OC(C)=O)c1C				0%	
CCCCCCC/C=C/c1nc2ccc(F)cc2c(OC(C)=O)c1C				0%	
CCCCCCC/C=C\c1nc2ccc(F)cc2c(OC(C)=O)c1C	10%	0%	100%	100%	
